Experimental data: US6020006A, “Reduction of hair growth” (The Gillette Company, priority 1998, dated 2000)

Experiments:
[1] = tested on: tissue-specific form of alkaline phosphatase; settings: Millan, Clinica Chimica Acta. 209:123-129, 1992; cited from earlier work
Alkaline phosphatase [2] = biological target: T1, Alkaline phosphatase (Mesocricetus auratus, UniProt A0A1U7QBN2); test: Alkaline phosphatase activity, hamster flank organ hair follicle enzyme; type: biochemical
T1 construct: the supernatant was used as the enzyme source; from tissue; host or cells: whole hamster flank organs, homogenized, 12,000×g supernatant
T1 sequence (A0A1U7QBN2 18-524): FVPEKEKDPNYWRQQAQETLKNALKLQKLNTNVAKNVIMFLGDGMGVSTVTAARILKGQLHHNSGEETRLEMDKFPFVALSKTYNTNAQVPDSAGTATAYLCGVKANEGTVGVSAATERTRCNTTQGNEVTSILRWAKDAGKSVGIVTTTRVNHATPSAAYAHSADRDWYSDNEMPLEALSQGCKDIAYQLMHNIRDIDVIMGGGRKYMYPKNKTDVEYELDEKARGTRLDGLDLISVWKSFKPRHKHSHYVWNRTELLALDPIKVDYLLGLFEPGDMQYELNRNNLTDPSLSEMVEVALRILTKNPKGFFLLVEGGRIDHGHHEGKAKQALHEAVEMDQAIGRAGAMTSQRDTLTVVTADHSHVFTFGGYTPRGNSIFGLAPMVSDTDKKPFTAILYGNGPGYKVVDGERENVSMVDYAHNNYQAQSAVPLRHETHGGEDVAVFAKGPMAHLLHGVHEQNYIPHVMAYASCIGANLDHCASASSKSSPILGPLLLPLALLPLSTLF
Method: (§1) Alkaline phosphatase activity was determined using a kit supplied by Sigma Chemical Co. Whole flank organs from hamsters or isolated human hair follicles were homogenized in a Tris-sucrose buffer, pH 7.5, using a polytron. The homogenate was centrifuged at 12,000×g for 5 minutes in a microcentrifuge, and the supernatant was used as the enzyme source. The supernatant (0.1 mL) was added to a reaction mixture containing 0.5 mL substrate (p-nitophenol phosphate) and 0.5 mL reaction buffer (both reagents supplied in the kit). Inhibitors were added in a volume of 0.1 mL. Water was used as a negative control. Reaction mixtures were incubated for 30 minutes at 37° C. The reaction mixtures were then transferred to a tube containing 10 mL 0.05N NaOH. Absorbance was measured at a wavelength of 410 nm. Concentrated hydrochloric acid (0.2 mL) was added to each tube and tubes were mixed. Again, absorbance was measured at 410 nm. Absorbance values from the second measurement were substrated from the first measurement to give normalized alkaline phosphatase activity.

Alkaline phosphatase [3] = biological target: T2, Alkaline phosphatase (Homo sapiens, UniProt P05186); test: Alkaline phosphatase activity, human hair follicle enzyme; type: biochemical
T2 construct: the supernatant was used as the enzyme source; from tissue; host or cells: isolated human hair follicles, homogenized, 12,000×g supernatant
T2 sequence (P05186 18-502 limits assumed): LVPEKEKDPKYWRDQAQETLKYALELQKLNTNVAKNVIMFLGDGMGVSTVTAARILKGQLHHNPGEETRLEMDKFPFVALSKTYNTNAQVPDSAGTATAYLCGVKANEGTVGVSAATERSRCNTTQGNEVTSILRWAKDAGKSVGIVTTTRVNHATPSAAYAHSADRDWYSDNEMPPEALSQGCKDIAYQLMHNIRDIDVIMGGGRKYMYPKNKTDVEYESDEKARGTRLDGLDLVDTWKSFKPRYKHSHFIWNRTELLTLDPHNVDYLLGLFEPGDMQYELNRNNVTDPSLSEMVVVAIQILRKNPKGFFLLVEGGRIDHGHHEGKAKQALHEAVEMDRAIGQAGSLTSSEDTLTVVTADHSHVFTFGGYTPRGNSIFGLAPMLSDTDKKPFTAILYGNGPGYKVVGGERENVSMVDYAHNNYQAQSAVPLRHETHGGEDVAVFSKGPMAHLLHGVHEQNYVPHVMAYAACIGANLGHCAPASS
Method: as §1

Human hair follicles = test: Human hair follicle growth assay; type: cell-based; settings: for % Inhibition / reduction in growth rate: Day 6-Day 0, vs control
Method: Human hair follicles in growth phase (anagen) were isolated from face-lift tissue under a dissecting scope using a scalpel and watchmakers forceps. The skin was sliced into thin strips exposing 2-3 rows of follicles that could readily be dissected. Follicles were placed into 0.5 mL Williams E medium (Life Technologies, Gaithersburg, Md.) supplemented with […] L-glutamine, 10 μg/mL insulin, 10 ng/mL hydrocortisone, 100 units penicillin, 0.1 mg/mL streptomycin and 0.25 μg/mL amphotericin B. The follicles were incubated in 24 well plates (1 follicle/well) at 37° C. in an atmosphere of 5% CO2 and 95% air. Hair follicles were videorecorded in the 24-well plates under the dissecting scope under a power of 20×. Typically, initial recordings were made on day 0 (day follicles were placed in culture) or day 1, and again on days 7 or 8. Hair follicle lengths were assessed using an image analysis software system (Computer Eyes and NIH Image).

[4] = tested on: tissue nonspecific form of alkaline phosphatase; settings: in several species; cited from earlier work

In the case of N[C@@H](Cc1c[nH]c2ccccc12)C(=O)O [tryptophan], the “inhibition of tissue-specific alkaline phosphatase” value [1] is given as “inhibit the tissue-specific form of alkaline phosphatase in a stereoselective fashion in that only the L-form is active”.
In the case of CC(C)C[C@H](N)C(=O)O [leucine], the “inhibition of tissue-specific alkaline phosphatase” value [1] is given as “inhibit the tissue-specific form of alkaline phosphatase in a stereoselective fashion in that only the L-form is active”.
For [Na+].[Na+].[Na+].[O]=[V]([O-])([O-])[O-] [Sodium Orthovanadate, sodium orthovanadate], the IC50 (Alkaline phosphatase [2]; Flank Organ, Table 3, 30 minutes at 37° C.) was 40 µM, the IC50 (Alkaline phosphatase [2]; hamster hair follicle enzyme) was 40 µM and the IC50 (Alkaline phosphatase [3]; Human Hair Follicle, Table 3, 30 minutes at 37° C.) was 75 µM. The IC50 (Alkaline phosphatase [3]; human hair follicle enzyme) was 75 µM, the “% Inhibition / reduction in growth rate” value (Human hair follicles; 0.1 mM) was 58 ± 8% and the “% Inhibition / reduction in growth rate” value (Human hair follicles; 0.1 mM, listed as sodium orthovanadate) was 58±8%. The “Hair Follicle Length Increase (mm) (Day 6-Day 0)” value (Human hair follicles; 0.1 mM, control 0.77 ± .09 mm) was 0.32 ± .06 mm.
In the case of N[C@@H](Cc1ccccc1)C(=O)O [phenylalanine], the “inhibition of tissue-specific alkaline phosphatase” value [1] is given as “inhibit the tissue-specific form of alkaline phosphatase in a stereoselective fashion in that only the L-form is active”.
For N=C(N)NCCCC[C@H](N)C(=O)O [L-homeoarginine], the “inhibition of tissue nonspecific alkaline phosphatase” value [4] is given as “inhibitor of the tissue nonspecific form of alkaline phosphatase in several species”.
With c1ccc(C2CN3CCSC3=N2)cc1 (racemic) [Tetramisole, [±]-2,3,5,6-tetrahydro-6-phenyl-imidazo [2,1-b] thiazole] the IC50 (Alkaline phosphatase [2]; hamster hair follicle enzyme) was 125 µM, the “Hair Follicle Length Increase (mm) (Day 6-Day 0)” value (Human hair follicles; 0.5 mM, control 1.08 ± .25 mm) was 0.63 ± .06 mm and the inhibition at 500 µM (Human hair follicles; Homo sapiens, read-out: % Inhibition of hair growth) was 42 ± 5%.
